The values below come from ChEMBL document CHEMBL4321815, “Discovery of an Extremely Potent Thiazine-Based β-Secretase Inhibitor with Reduced Cardiovascular and Liver Toxicity at a Low Projected Human Dose” (J Med Chem, 2019).

In experiment [1] the test system is Canis familiaris. The experiment in a line: In vivo inhibition of BACE1 in po dosed Beagle dog assessed as plasma level causing 50% reduction in amyloidbeta42 level in CSF administered as single dose measured after 4 to 49 hrs. The conditions noted are these: Canis lupus familiaris. The experiment is classed as functional, organism-based.
The test system of experiment [2] is Homo sapiens. The experiment can be described thus: In vivo inhibition of BACE1 in human assessed as reduction in amyloidbeta level at 75 mg administered once daily relative to control. In kind it is functional.
The species entered for experiment [3] is Canis familiaris. The experiment in a line: animal or person. The experiment is classed as functional, organism-based. The conditions noted are these: Canis lupus familiaris, Beagle.
The test system of experiment [4] is Homo sapiens. The experiment in a line: In vivo inhibition of BACE1 in human assessed as reduction in amyloidbeta level at 40 mg administered once daily relative to control. The experiment is classed as functional.

Broadly, the EC50 is the concentration needed to bring the measured effect to its halfway point. On to `C[C@H]1OC[C@]2(c3cc(NC(=O)c4cnc(C(F)F)cn4)ccc3F)N=C(N)SC[C@H]12` [ELENBECESTAT], for which the EC50 with Canis familiaris [1] was 22 nM; in the experiment filed under Canis familiaris [3] it was 8.1 nM. The “inhibition (INH)” value in the experiment with Homo sapiens [2] is 80%.

With `CN1C(N)=N[C@](C)(c2cc(NC(=O)c3ccc(F)cn3)ccc2F)CS1(=O)=O` [VERUBECESTAT], the EC50 in the experiment with Canis familiaris [1] worked out at 34 nM. The “inhibition (INH)” value in the experiment with Homo sapiens [4] turned out to be 80%.
